Measurements as given in patent publication US5585367A (priority 1990, dated 1996).
Values after ≈ are worked out from the molar mass of the structure shown. Where two headings read alike, the source gives them in different places.

Legend:
[1] = B. L. OSER et al. (1965); cited from earlier work
HIV-2 ROD = assay: Inhibition of HIV replication in MT4 cells; assay type: cell-based; details: 0.4 μgr/ml to 250.0 μgr/ml
[2] = Treatment of three sound volunteers for 30 days; assay type: in vivo, human; details: 1500 mgr a day (three portions of 500 mgr)
Description: Three sound volunteers were treated for 30 days with 1500 mgr a day of a azobisformamide in three portions of 500 mgr.

HIV-1 Wild F = assay: Inhibition of HIV replication in PBL's; assay type: cell-based; details: Human immunodeficiency virus 1, Wild F (resistant to AZT, syncytium inducer)
[3] = Single oral doses to healthy volunteers, tolerability and safety; assay type: in vivo, human
Description: Pharmaceutical grade ADA in gelatin capsules, each containing 500 mg, was administered as single oral doses to healthy volunteers to determine its tolerability and safety. […] These changes were reversible within 4-6 hours from intake.

[4] = target: T1, HIV-1 reverse transcriptase (RT) (Human immunodeficiency virus type 1 BH10, UniProt P03366); assay: Acellular in-vitro inhibition of reverse transcriptase (polyrC-oligodG template-primer-complex); assay type: biochemical
T1 construct: mature RT from Gag-Pol polyprotein (pr160Gag-Pol)
Description: ADA in a liquid medium was tested in an acellular in-vitro system for any inhibitory effect on HIV-1 reverse transcriptase (RT) using the polyrC-oligodG template-primer-complex. […] From concentrations of 60 μgr/ml upward, there is a 50% inhibition of RT. […] Therefore, ADA inhibits HIV replication with an as yet unknown but original mode of action.

HIV-1 Wild A = assay: Inhibition of HIV replication in PBL's; assay type: cell-based; details: Human immunodeficiency virus 1
HIV-1 Wild B = assay: Inhibition of HIV replication in PBL's; assay type: cell-based; details: Human immunodeficiency virus 1
wild HIV-1 strains = assay: Inhibition of HIV replication, wild HIV-1 strains; assay type: cell-based; details: for IC90: Human immunodeficiency virus 1, wild strains from patients
[5] = Tolerability and effectiveness of single doses; assay type: in vivo, human; details: single doses of between 7 and 140 mg per kg body weight
HIV-1 = assay type: cell-based
HIV-1 strain IIIB /LAI = assay: Inhibition of HIV-1 replication in acutely infected PBLs (p24 ELISA); assay type: cell-based; details: for Protection: "Toxic" means that the cells are destroyed
Description: A new assay was conducted by the AIDS laboratory of the REGA Institute for Medical Research of the Katholieke Universiteit of Leuven.
1,1'-azobisformamide was purchased from Riedel de Haen and stored in a refrigerator (4°-8° C.) under light-protected conditions. Dilutions were prepared in order to obtain concentrations of 0.4 μg/ml, 2 μg/ml, 10 μg/ml, 50 μg/ml and 250 μg/ml.
Peripheral Blood Lymphocytes (PBLs) were freshly collected from a single donor. PBLs were activated by phytohemagglutinin at 2 μg/ml during 3 days, and then cultured in the presence of IL-2 for 1 week.
HIV-1 strain IIIB /LAI was provided by R. C. Gallo (Popovic M. et al, Science 1984, 224:497-500). Stocks were obtained from the culture supernatants of HIV-1 infected cell lines (HUT 78/IIIB /LAI).
The inhibitory effects of 1,1'-azobisformamide on the replication of strain IIIB /LAI in PBLs were monitored by the detection of HIV-1 p24 core antigens. PBLs were incubated with an excess of strain IIIB /LAI at 37° C. for 60 min. All cells were washed once with RPMI 1640 medium. Thereafter cells were plated at 1×10^6 cells per ml in the presence of various concentrations of the test compound. Seven days after plating PBLs, p24 antigens were detected by enzyme-linked immunosorbent assay (ELISA) (HIV-1 p24 Core Profile ELISA from Du Pont).
This method comprises measuring the concentration of the viral antigen p24 in the supernatant, i.e., the concentration of free viruses produced by replication of the viruses present in the infected cells. This measure is expressed as a measure of protection (see Table I below), where [formula]

[6] = test system: genes "GAG", "LTR" and "ENV" of the HIV-1 provirus; assay: Integration of viral genome into chromosomic DNA of Supt-1 cells (PCR); assay type: cell-based; details: 35 μgr/ml; virus incubated for 15 minutes
Description: By means of a genetic amplification through a thermostable polymerase, the presence of genes "GAG", "LTR" and "ENV" of the HIV-1 provirus is evidenced. This method is called P.C.R. Polymerase chain Reaction) (Chin-Yih Ou et al., Sciences 239, 295-297, 1988).
Said method is applied for detecting HIV-1 provirus in the genome of Supt-1 cells inoculated with HIV-1 virus incubated with […] (dilution 1/100), as described in Example 8
Amplified oligonucleotides, UV visible by means of ethidium bromide appear only in the tubes corresponding to an inoculation with HIV-1 viruses which were not treated with the active substance.
One proceeds as in Example 11(c). The search of genes "GAG", "LTR" and "ENV" has been made in cellular cultures inoculated with a virus incubated for 15 minutes with the active substance. This search is appeared as being negative, and thus it can be concluded that 1.1'-azobisformamide at the dosage of 35 μgr/ml protects the cells against infection by HIV-1.
Examples 10c and 11c disclose a more accurate method than the ELISA test for examining whether the inoculated cells contain HIV-1 at the end of the assay, i.e., the PCR-Method.

HIV-1 Wild D = assay: Inhibition of HIV replication in PBL's; assay type: cell-based; details: Human immunodeficiency virus 1
Tat = Tat antagonism
[7] = single oral doses, one volunteer

NC(=O)N=NC(N)=O [ADA, 1,1'-azobisformamide]
toxicity for the humans [1]: absence of toxicity | inhibition of the replication of HIV-2 (ROD) (HIV-2 ROD): inhibits the replication | hematological parameters [2]: remained perfectly normal | secondary effect [2]: No secondary effect was reported | IC50 (HIV-1 Wild F): 6.4 µg/mL (≈ 55.1 µM) | IC90 (HIV-1 Wild F): 19 µg/mL (≈ 164 µM) | adverse effects on hematological and chemical parameters in blood and urine ([3]; 40 mg/kg or 60 mg/kg): No adverse effects were observed | adverse effects on blood pressure, pulse, or respiratory rate ([3]; any of the tested dosages): No adverse effects were observed | glutathione in peripheral blood ([3]; from doses of 40 mg/kg): slightly depressed | methemoglobin reduces [reductase] in peripheral blood ([3]; from doses of 40 mg/kg): slightly depressed | reversibility of the changes, time from intake ([3]; from doses of 40 mg/kg): 4 to 6 h | tolerability ([3]; single oral dosages of up to 60 mg per kg body weight): well tolerated | methemoglobin [3, 7]: dose-related increase in methemoglobin | return of methemoglobin to normal [3, 7]: within half an hour | time of methemoglobin Cmax after intake [3, 7]: 1 to 1.5 h | RT inhibition ([4]; at concentrations up to the IC90): not an RT-inhibitor | inhibition of RT ([4]; from concentrations of 60 μgr/ml upward): 50% | IC50 (HIV-1 Wild A): 8.9 µg/mL (≈ 76.7 µM) | IC90 (HIV-1 Wild A): 17.4 µg/mL (≈ 150 µM) | IC50 (HIV-1 Wild B): 11.6 µg/mL (≈ 99.9 µM) | IC90 (HIV-1 Wild B): 18.6 µg/mL (≈ 160 µM) | IC90 (wild HIV-1 strains; read-out: IC90 range): 17.4 to 21.2 µg/mL (≈ 150 to 183 µM) | IC90 (wild HIV-1 strains; read-out: median IC90 (complete inhibition, ≥90% inhibition)): 18 µg/mL (≈ 155 µM) | inhibition of the replication of wild HIV-1 strains (wild HIV-1 strains; PBLs, including strains phenotypically resistant to AZT, 0.4 to 250.0 μgr/ml): inhibit the replication | tolerability and effectiveness [5]: tolerable and effective | flu-like syndrome (140 mg/kg, from 6 hours after intake, lasted several hours): flu-like syndrome was observed | adverse effects such as changes in hemodynamic parameters or subjective well-being (lower doses (35 and 70 mg/kg)): No adverse effects | cytopathogenic effect (HIV-1): No cytopathogenic effect has been observed | toxical effect on Supt-1 cells (Supt-1 cells): No toxical effect has been noted | Protection (HIV-1 strain IIIB /LAI; 50 μg/ml): Toxic | Protection (HIV-1 strain IIIB /LAI; 250 μg/ml): Toxic | inhibition at 0.4 µg/mL (HIV-1 strain IIIB /LAI; Human immunodeficiency virus 1, IIIB, 168 h, 0.4 μg/ml, read-out: Protection): 15.2% | inhibition at 2 µg/mL (HIV-1 strain IIIB /LAI; Human immunodeficiency virus 1, IIIB, 168 h, 2 μg/ml, read-out: Protection): 45.8% | inhibition at 10 µg/mL (HIV-1 strain IIIB /LAI; Human immunodeficiency virus 1, IIIB, 168 h, 10 μg/ml, read-out: Protection): 77.6% | IC50 (HIV-1 strain IIIB /LAI; Human immunodeficiency virus 1, PBLs acutely infected with IIIB /LAI): 2.47 µg/mL (≈ 21.3 µM) | search of genes "GAG", "LTR" and "ENV" [6]: negative | IC50 (HIV-1 Wild D): 10 µg/mL (≈ 86.1 µM) | IC90 (HIV-1 Wild D): 18.1 µg/mL (≈ 156 µM) | Tat antagonism (Tat): not a Tat-antagonist
